Calls of active or inactive are those of the source. How the calls were made is not given here.
Tested on: CCRIS mutagenicity, Ames/micronucleus/aberration tests
Test: CCRIS mutagenicity studies

Measured: mutagenic call

O=C1OC(O)C(C(Cl)Cl)=C1Cl (centres undefined)
active: Test System: AMES SALMONELLA TYPHIMURIUM, Strain/Indicator: TA92, Metabolic Activation: NONE, Method: STANDARD PLATE active; positive | Test System: AMES SALMONELLA TYPHIMURIUM, Strain/Indicator: TA97, Metabolic Activation: NONE, Method: STANDARD PLATE active; positive | Test System: AMES SALMONELLA TYPHIMURIUM, Strain/Indicator: TA98, Metabolic Activation: NONE, Method: PREINCUBATION active; positive | Test System: AMES SALMONELLA TYPHIMURIUM, Strain/Indicator: TA98, Metabolic Activation: NONE, Method: STANDARD PLATE active; positive | Test System: AMES SALMONELLA TYPHIMURIUM, Strain/Indicator: TA98, Metabolic Activation: RAT LIVER S-9, Method: PREINCUBATION active; positive | Test System: AMES SALMONELLA TYPHIMURIUM, Strain/Indicator: TA100, Metabolic Activation: NONE, Method: PREINCUBATION active; positive | Test System: AMES SALMONELLA TYPHIMURIUM, Strain/Indicator: TA100, Metabolic Activation: RAT, LIVER, S-9, AROCLOR 1254, Method: STANDARD PLATE active; positive | Test System: AMES SALMONELLA TYPHIMURIUM, Strain/Indicator: TA102, Metabolic Activation: NONE, Method: STANDARD PLATE active; positive | Test System: AMES SALMONELLA TYPHIMURIUM, Strain/Indicator: TA1535, Metabolic Activation: NONE, Method: STANDARD PLATE active; positive | Test System: AMES SALMONELLA TYPHIMURIUM, Strain/Indicator: TA1538, Metabolic Activation: NONE, Method: STANDARD PLATE active; positive | Test System: AMES SALMONELLA TYPHIMURIUM, Strain/Indicator: YG7112, Metabolic Activation: NONE, Method: PREINCUBATION active; positive | Test System: AMES SALMONELLA TYPHIMURIUM, Strain/Indicator: YG7113, Metabolic Activation: NONE, Method: PREINCUBATION active; positive | Test System: AMES SALMONELLA TYPHIMURIUM, Strain/Indicator: YG7119, Metabolic Activation: NONE, Method: PREINCUBATION active; positive | Test System: Ames Salmonella typhimurium, Strain/Indicator: TA100, Metabolic Activation: None, Method: Preincubation active; positive | Test System: Ames Salmonella typhimurium, Strain/Indicator: TA104, Metabolic Activation: None, Method: Plate incorporation active; positive | Test System: Ames Salmonella typhimurium, Strain/Indicator: TA1975P, Metabolic Activation: None, Method: Preincubation active; positive (at higher doses) | Test System: CHINESE HAMSTER OVARY, Strain/Indicator: CHO-KTL3 (HPRT)/6-THIOGUANINE, Metabolic Activation: NONE active; positive | Test System: E. COLI, Strain/Indicator: CL101P, Metabolic Activation: NONE, Method: PREINCUBATION active; positive | Test System: E. COLI, Strain/Indicator: CL102P, Metabolic Activation: NONE, Method: PREINCUBATION active; positive | Test System: E. COLI, Strain/Indicator: CL103P, Metabolic Activation: NONE, Method: PREINCUBATION active; positive | Test System: E. COLI, Strain/Indicator: CL104P, Metabolic Activation: NONE, Method: PREINCUBATION active; positive | Test System: E. COLI, Strain/Indicator: CL105P, Metabolic Activation: NONE, Method: PREINCUBATION active; positive | Test System: E. COLI, Strain/Indicator: WP2 UVRA, Metabolic Activation: NONE, Method: PREINCUBATION active; positive | Test System: HUMAN H1A1V2 CELLS, Strain/Indicator: TK LOCUS, Metabolic Activation: NONE, Method: SUSPENSION/PLATE active; positive | Test System: HUMAN LYMPHOBLASTOID CELLS, Strain/Indicator: AHH-1 CELLS (TK+/TK-), Metabolic Activation: NONE, Method: SUSPENSION/PLATE active; positive | Test System: HUMAN LYMPHOBLASTOID CELLS, Strain/Indicator: MCL-5 CELLS (TK+/TK-), Metabolic Activation: NONE, Method: SUSPENSION/PLATE active; positive | Test System: MOUSE LYMPHOMA, Strain/Indicator: L5178Y (TK+/TK-), Metabolic Activation: NONE, Method: SUSPENSION/PLATE active; positive | Test System: UDS HUMAN HEPATOCYTES, Strain/Indicator: THY INCORP, Metabolic Activation: NONE, Method: AUTORADIOGRAPHY active; positive | Test System: UDS MOUSE HEPATOCYTES, Strain/Indicator: THY INCORP, Metabolic Activation: NONE, Method: AUTORADIOGRAPHY active; positive | Test System: UDS RAT HEPATOCYTES, Strain/Indicator: THY INCORP, Metabolic Activation: NONE, Method: AUTORADIOGRAPHY active; positive | Test System: UDS RAT HEPATOCYTES, Strain/Indicator: THYMIDINE INCORPORATION, Metabolic Activation: NONE, Method: AUTORADIOGRAPHY active; positive
inactive: Test System: AMES SALMONELLA TYPHIMURIUM, Strain/Indicator: RSJ100, Metabolic Activation: NONE, Method: PREINCUBATION inactive; negative | Test System: AMES SALMONELLA TYPHIMURIUM, Strain/Indicator: RSJ100, Metabolic Activation: RAT LIVER S-9, Method: PREINCUBATION inactive; negative | Test System: AMES SALMONELLA TYPHIMURIUM, Strain/Indicator: TA98, Metabolic Activation: RAT LIVER S-9, AROCLOR 1254, Method: STANDARD PLATE inactive; negative | Test System: AMES SALMONELLA TYPHIMURIUM, Strain/Indicator: TA98, Metabolic Activation: RAT, LIVER, S-9, PHENOBARBITAL AND 5,6-BENZOFLAVONE, Method: PREINCUBATION inactive; negative | Test System: AMES SALMONELLA TYPHIMURIUM, Strain/Indicator: TA100, Metabolic Activation: RAT LIVER S-9, AROCLOR 1254, Method: STANDARD PLATE inactive; negative | Test System: AMES SALMONELLA TYPHIMURIUM, Strain/Indicator: TA100, Metabolic Activation: RAT LIVER S-9, Method: PREINCUBATION inactive; negative | Test System: AMES SALMONELLA TYPHIMURIUM, Strain/Indicator: TA100, Metabolic Activation: RAT, LIVER, S-9, PHENOBARBITAL AND 5,6-BENZOFLAVONE, Method: PREINCUBATION inactive; negative | Test System: CHINESE HAMSTER V-79, Strain/Indicator: V-79 (HGPRT), Metabolic Activation: NONE inactive; negative | Test System: E. COLI, Strain/Indicator: CL106P, Metabolic Activation: NONE, Method: PREINCUBATION inactive; negative | Test System: E. COLI, Strain/Indicator: WP2, Metabolic Activation: NONE, Method: PREINCUBATION inactive; negative | Test System: E. coli, Strain/Indicator: XL-1 Blue MRA P2 (Spi), Method: Standard plate inactive; negative | Test System: E. coli, Strain/Indicator: YG6020 (Gpt)/6-Thioguanine, Method: Standard plate inactive; negative | Test System: UDS MOUSE HEPATOCYTES, Strain/Indicator: THY INCORP, Metabolic Activation: IN VIVO, Method: AUTORADIOGRAPHY inactive; negative

Reference: PubChem BioAssay AID1259407 (Chemical Carcinogenesis Research Information System (CCRIS), 2018)
